From patent US20250034551A1, “METHODS AND SYSTEMS FOR HIGH-THROUGHPUT BIOCHEMICAL SCREENS” (THINK BIOSCIENCE, INC., priority 2021, published 2025)
“Also recorded” adds a separate entry of the source. Where two headings read alike, the source gives them in different places.

How the values were obtained:
[1] = molecular target: kinase substrate domain (MidT) fused to the omega subunit of RNA polymerase (RpoZ), no protease recognition site in the linker (UniProt P0A800)
[2] = molecular target: T1, PTP1B (Homo sapiens, UniProt P18031); assay: PTP1B-catalyzed hydrolysis of p-nitrophenyl phosphate (pNPP), in vitro kinetic assay; type: biochemical; conditions: for Ki: PTP1B1-321; for inhibition of PTP1B activity on pNPP relative to himachalol: 50 nM PTP1B, 5 mM pNPP, 2% or 10% DMSO
T1 sequence (P18031 1-321): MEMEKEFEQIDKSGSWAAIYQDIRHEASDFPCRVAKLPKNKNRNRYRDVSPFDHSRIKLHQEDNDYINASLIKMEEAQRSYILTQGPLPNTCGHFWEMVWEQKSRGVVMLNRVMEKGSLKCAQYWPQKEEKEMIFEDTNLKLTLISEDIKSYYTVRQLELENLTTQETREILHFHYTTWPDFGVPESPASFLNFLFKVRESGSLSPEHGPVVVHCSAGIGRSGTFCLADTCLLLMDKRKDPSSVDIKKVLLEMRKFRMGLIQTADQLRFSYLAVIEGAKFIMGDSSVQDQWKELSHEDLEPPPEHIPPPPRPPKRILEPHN
Description: PTP1B was purified as described previously. Briefly, the E. coli BL21 (DE3) cells were transformed with a pET21b vector containing the catalytic domain of PTP1B (residues 1-321) modified with a 6× polyhistidine tag on its C-terminus. The cells were grown in 1-L cultures to an OD600 of 0.3-0.6 (37° C., 225 RPM), induced with 500 μM IPTG, and grown at 22° C. for 20 hours. The cells were lysed with B-PERII, and purified PTP1B by using desalting, nickel affinity, and anion exchange chromatography (HiPrep 26/10, HisTrap HP, and HiPrep Q HP, respectively; GE Healthcare). The final protein was stored (50 μM) in HEPES buffer (50 mM, pH 7.5, 0.5 mM TCEP) in 20% glycerol at −80° C.
(§1) Inhibition was examined by FPP by measuring its influence on PTP1B-catalyzed hydrolysis of p-nitrophenylphosphate (pNPP). Briefly, 100-μL reactions were prepared comprising 50 nM PTP1B, 0.167-20 mM pNPP, and 75-150 μM terpenoids in 50 mM HEPES (pH=7.3) with 50 mM TCEP, 50 μg/mL BSA, and 2-10% DMSO. The reactions were initiated by adding pNPP, and the production of p-nitrophenol (pNP) was monitored by measuring absorbance at 405 nm every 10 s for 5 min (SpectraMax iD3 plate reader). When necessary, the solubility of the terpenoids in individual wells were assessed by plotting the A405 values for each well—including a no-inhibitor well—in a single read.
Kinetic data was analyzed by using a custom Matlab script supplemented with a user-generated standard curve (e.g., a plot of absorbance at 405 nm vs. pNP concentration in μM, FIG. 15). This script removes datapoints outside of (i) the linear range of the standard curve and/or (ii) the initial rate regime, and it excludes datasets that contain fewer than 10 datapoints after these processing steps. The all datasets were fit using linear regression with Matlab's backslash operator. To determine the half maximal inhibitory concentration (IC50) of himachalol, kinetic models were evaluated by fitting them to standard models of inhibition (e.g., […], noncompetitive, […], and mixed inhibition). Briefly, the procedure included: (i) fitting an initial-rate measurements of pNPP hydrolysis with and without inhibitors, (ii) using the Akaike's Information Criterion (AIC) to compare the best-fit single parameter model to each alternative single-parameter model and accepting the “best-fit” model when the difference in AIC (Δi) exceeded 5 for all comparisons (when this criterion was not met, it was deemed that two or more single-parameter models may be indistinguishable), and (iii) using an F-test to compare a mixed inhibition model to the best-fit single-parameter model and accepting the mixed model if p<0.05. […] The MATLAB function “nlparci” was used to determine the confidence intervals of kinetic parameters, and those intervals were propagated to estimate confidence intervals for each IC50.
Inhibition by FPP, a costly reagent, was examined with three modifications of the above assay: (i) pNPP concentration was held constant (5 mM). (ii) The 10% DMSO was replaced with 10% of a mixture of methanol: 10 mM NH4OH (7:3). (FPP was purchased as a 1.1 mg/mL solution in methanol: 10 mM NH4OH (7:3)). (ii) IC50 was estimated by using a linear fit to the initial rate data; 95% confidence intervals were propagated on the regression parameters generated using Matlab's “coefCI function”. This approach, which reflects the limited number of measurements afforded by the FPP stock (measurements which include very high and very low initial rates), may result in a greater error than a more standard approach for estimating IC50 (e.g., 4-parameter logistic curves) but nonetheless provides an order of magnitude estimate of potency.

[3] = molecular target: T1, PTP1B; assay: fluorescence-based binding isotherms for BBR; design: binding of BBR to PTP1B in the presence of amorphadiene: dose or concentration left out as unconfirmed; conditions: for ΔFmax of BBR binding isotherm: ±SE
From the text: (§2) Error bars denote standard error for n=3 technical replicates. […] Error bars denote standard deviation for n=3 technical replicates.

[4] = molecular target: T1, PTP1B; assay: melting temperatures determined with differential scanning fluorimetry; type: binding; conditions: n=3
From the text: as §2

[5] = molecular target: 3CLpro (Severe acute respiratory syndrome coronavirus 2, UniProt P0DTD1); assay: 3CLpro-mediated hydrolysis of FRET peptide Mca-[…](Dnp)K; type: biochemical, SARS-COV-2
From the text: Förster resonance energy transfer (FRET) peptides provide a facile means of assaying protease inhibitors. These peptides contain a fluorophore and a quencher separated by a protease recognition domain; peptide cleavage separates the fluorophore and quencher and increases fluorescence.
For 3CLpro, a commercially available substrate was used: Mca-[…](Dnp)K (SEQ ID NO: 1), where Mca ((methoxycoumarin-4-yl) acetyl) was the fluorophore and 2,4-dinitrophenyl (Dnp) was the quencher. Using this assay, inhibition by eucalyptol and α-bisabolol (FIGS. 30B-30C, FIG. 56) was examined.

[6] = molecular target: SARS-COV-2 3CLpro (Severe acute respiratory syndrome coronavirus 2, UniProt P0DTD1); assay: 3CLpro-catalyzed proteolysis of fluorogenic peptide substrate TSAVLQ_AFC; type: biochemical; conditions: mean and standard error
[7] = solubility of terpenoids in kinetic assay wells (A405); type: physicochemical
Description: as §1

[8] = molecular target: RpoZ-MidT fusion with AAAA_Ubiquitin_AAAA added to the linker (UniProt P0A800)
RpoZ-MidT fusion with AAAA_Ubiquitin_AAAA added to the linker, sequence (P0A800 whole entry, looked up, the tested form may be a part): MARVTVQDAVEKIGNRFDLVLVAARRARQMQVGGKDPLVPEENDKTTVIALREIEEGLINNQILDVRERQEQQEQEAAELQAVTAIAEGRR

[9] = molecular target: RpoZ-MidT fusion with the 3CLpro recognition sequence in the linker (number of flanking alanines not stated) (UniProt P0A800)
RpoZ-MidT fusion with the 3CLpro recognition sequence in the linker (number of flanking alanines not stated), sequence (P0A800 whole entry, looked up, the tested form may be a part): as above

[10] = molecular target: RpoZ-MidT fusion with the PLpro recognition site LRGG in the linker (UniProt P0A800)
RpoZ-MidT fusion with the PLpro recognition site LRGG in the linker, sequence (P0A800 whole entry, looked up, the tested form may be a part): as above

[11] = molecular target: RpoZ-MidT fusion with the HIV-1 protease recognition sequence in the linker (number of flanking alanines not stated) (UniProt P0A800)
RpoZ-MidT fusion with the HIV-1 protease recognition sequence in the linker (number of flanking alanines not stated), sequence (P0A800 whole entry, looked up, the tested form may be a part): as above

[12] = molecular target: RpoZ-MidT fusion with the DENVpro/WNVpro recognition site in the linker (UniProt P0A800)
RpoZ-MidT fusion with the DENVpro/WNVpro recognition site in the linker, sequence (P0A800 whole entry, looked up, the tested form may be a part): as above

[13] = molecular target: RpoZ-MidT fusion with the 3CLpro recognition sequence in the linker (number of flanking alanines not stated), P0A800
RpoZ-MidT fusion with the 3CLpro recognition sequence in the linker (number of flanking alanines not stated), P0A800, sequence (P0A800 whole entry, looked up, the tested form may be a part): as above

[14] = molecular target: RpoZ-MidT fusion with the HIV-1 protease recognition sequence in the linker (number of flanking alanines not stated), P0A800
RpoZ-MidT fusion with the HIV-1 protease recognition sequence in the linker (number of flanking alanines not stated), P0A800, sequence (P0A800 whole entry, looked up, the tested form may be a part): as above

kinase substrate domain (MidT) fused to the omega subunit of RNA polymerase (RpoZ), no protease recognition site in the linker, sequence (P0A800 whole entry, looked up, the tested form may be a part): as above

Molecule: 3-chymotrypsin-like protease (3CLpro) of SARS-CoV-2
- dynamic range (DR, the change in luminescence caused by protease expression) [1]: 10.7±1.2 vs. 6.3±0.9

Molecule: CC(C)=CCC/C(C)=C/CC/C(C)=C/CO[P@@](=O)(O)OP(=O)(O)O (stereo in doubt) [FPP, farnesyl pyrophosphate]
- IC50 ([2]; [PTP1B]=50 nM, [pNPP]=5 mM, linear fit, rough estimate, read-out: IC50 for PTP1B): ~200 µM

Molecule: CC1=C[C@@H]2C(=C(C)CC[C@H]2C(C)C)CC1 [(+)-8-cadinene]
- IC50 ([2]; major product of terpene synthase A0A0C9VSL7, error 95 CI, read-out: IC50 (PTP1B), estimated): 165 µM

Molecule: CCc1oc2cc(S(=O)(=O)Nc3ccc(S(=O)(=O)Nc4nccs4)cc3)ccc2c1C(=O)c1cc(Br)c(O)c(Br)c1 [BBR, 3-(3,5-dibromo-4-hydroxybenzoyl)-2-ethyl-N-[4-[(2-thiazolylamino)sulfonyl]phenyl]-6-benzofuransulfonamide]
- ΔFmax of BBR binding isotherm ([3]; BBR alone): 227000±13000
- ΔFmax of BBR binding isotherm ([3]; BBR with AD): 195000±12000
- ΔFmax of BBR binding isotherm ([3]; BBR with TCS401): 94000±2000
- binding of BBR to PTP1B in the presence of amorphadiene ([3]; presence of amorphadiene): not significantly disrupted
- effect on melting temperature (stability) of PTP1B [4]: destabilize PTP1B

Molecule: Cc1cc(-c2c3ccccc3c(Br)c3sc(C)c(C)c23)cc(C)c1O[C@H](Cc1ccccc1)C(=O)O [Ertiprotafib]
- effect on melting temperature (stability) of PTP1B [4]: destabilize PTP1B

Molecule: O=C(O)C(=O)Nc1sc2c(c1C(=O)O)CCNC2 [TCS401]
- effect on melting temperature (stability) of PTP1B [4]: do not

Molecule: C=C(C)[C@@H]1CC[C@@H](C)[C@@H]2CCC(C)=C[C@@H]21 [amorphadiene]
- effect on melting temperature (stability) of PTP1B [4]: do not
- selectivity PTP1B versus TCPTP [2]: more potent inhibitor of PTP1B than TCPTP

Molecule: CC12CCC(CC1)C(C)(C)O2 [eucalyptol]
- inhibitory effect on 3CLpro ([5]; FRET peptide, FIG. 56): no inhibitory effect; also recorded: not an inhibitor

Molecule: CC1=C[C@H]2[C@@H](CC1)[C@](C)(O)CCCC2(C)C [himachalol]
- Ki ([2]; fit of competitive model, read-out: Ki, competitive model): 24.4 µM
- Ki ([2]; fit of mixed model, read-out: Ki,c, mixed model): 161 µM
- Ki ([2]; fit of mixed model, read-out: Ki,u, mixed model): 305 µM
- Ki ([2]; fit of noncompetitive model, marked *, read-out: Ki, noncompetitive model (best fit)): 280 µM
- Ki ([2]; fit of uncompetitive model, read-out: Ki, uncompetitive model): 253 µM
- IC50 ([2]; PTP1B-catalyzed hydrolysis of pNPP, estimated from best-fit kinetic model at 20 mM pNPP, read-out: IC50 for PTP1B): 280 ± 59 µM

Molecule: CC(C)=CCC=C(C)C1CC=C(C)CC1 (stereo not drawn) [α-bisabolene]
- IC50 [6]: 186 ± 12 µM

Molecule: CC1=C[C@H]2C(=C(C)CCCC2(C)C)CC1 [β-himachalene]
- inhibition of PTP1B activity on pNPP relative to himachalol [2]: less inhibitory
- solubility in kinetic assay [7]: low solubilities

Molecule: C=C1C=CC(C)(C)CCCC(C)=CCC1 [γ-humulene]
- inhibition of PTP1B activity on pNPP relative to himachalol [2]: less inhibitory
- solubility in kinetic assay ([7]; precluded IC50 estimates): low solubilities

Molecule: HIV-1 protease
- LuxAB luminescence response to protease overexpression [8]: HIVpro appeared functional with all sites, which was behavior consistent with its reported promiscuity
- LuxAB luminescence response to protease overexpression [9]: HIVpro appeared functional with all sites, which was behavior consistent with its reported promiscuity
- LuxAB luminescence response to protease overexpression [10]: HIVpro appeared functional with all sites, which was behavior consistent with its reported promiscuity
- LuxAB luminescence response to protease overexpression [11]: HIVpro appeared functional with all sites, which was behavior consistent with its reported promiscuity

Molecule: Non-structural protein 2B-3 protease complex from Dengue virus 2 (DENV2 NS2B-NS3)
- LuxAB luminescence screen of proteases against recognition sites [12]: WNVpro and DNVpro showed no activity in initial screens

Molecule: Non-structural protein 2B-3 protease complex from West Nile Virus (WNV NS2B-NS3)
- LuxAB luminescence screen of proteases against recognition sites [12]: WNVpro and DNVpro showed no activity in initial screens

Molecule: α-bisabolol
- IC50 [6]: 30 to 80 µM
- IC50 ([5]; FRET / fluorogenic peptide, mixture containing α-bisabolol, read-out: IC50 for 3CLpro): 3.33 µM
- IC50 ([5]; fit to percent inhibition, FIG. 30C, read-out: half-maximal inhibitory concentration (IC50) for 3CLpro): ~3 µM

B1: protein tyrosine phosphatase 1B (PTP1B), catalytic domain 1-321 (protein)
chain: T1 sequence (P18031 1-321)
- dynamic range of LuxAB luminescence between active and inactive PTP1B [13]: retained the desired B2H activity (e.g., PTP1B inactivation increased luminescence) at a 4- to 5-fold dynamic range
- dynamic range of LuxAB luminescence between active and inactive PTP1B [14]: retained the desired B2H activity (e.g., PTP1B inactivation increased luminescence) at a 4- to 5-fold dynamic range
